Test in all cases: KinomeScan profiling
Assay type in all cases: binding

The target in experiment [1] is T1, TBK1 (Homo sapiens, UniProt Q9UHD2).
T1 sequence (Q9UHD2 1-729): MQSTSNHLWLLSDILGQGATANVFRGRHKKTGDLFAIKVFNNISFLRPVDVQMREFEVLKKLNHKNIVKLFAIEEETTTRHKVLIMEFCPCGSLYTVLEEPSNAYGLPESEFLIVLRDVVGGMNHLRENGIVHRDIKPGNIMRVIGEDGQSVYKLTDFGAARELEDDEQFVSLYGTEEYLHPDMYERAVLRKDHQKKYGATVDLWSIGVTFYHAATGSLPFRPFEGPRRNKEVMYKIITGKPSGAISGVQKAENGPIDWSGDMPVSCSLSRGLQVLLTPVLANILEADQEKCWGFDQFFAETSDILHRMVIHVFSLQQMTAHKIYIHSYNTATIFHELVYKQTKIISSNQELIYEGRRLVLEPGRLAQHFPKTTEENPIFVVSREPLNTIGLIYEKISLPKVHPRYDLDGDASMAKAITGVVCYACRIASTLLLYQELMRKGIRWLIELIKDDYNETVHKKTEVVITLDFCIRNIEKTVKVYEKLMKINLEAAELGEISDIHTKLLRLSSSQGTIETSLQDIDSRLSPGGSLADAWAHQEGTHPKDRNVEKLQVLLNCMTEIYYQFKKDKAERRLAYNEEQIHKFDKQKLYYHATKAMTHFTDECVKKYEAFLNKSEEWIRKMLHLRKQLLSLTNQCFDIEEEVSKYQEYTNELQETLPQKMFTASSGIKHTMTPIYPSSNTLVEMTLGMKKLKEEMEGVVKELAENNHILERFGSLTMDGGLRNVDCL
To be noted: TBK1, 1 μM; read-out: % control. In a few lines:
(§1)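 Luminescence (RLU) was converted to percent of control, with DMSO set as 100% and a reference compound as 0%. Test compounds were run at 1 μM against 468 kinases. Kinases showing below 35% of control were scored as bound.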

The target of experiment [2] is PRKR (Homo sapiens, UniProt P19525). Particulars: read-out: % control. In a few lines: as §1
The target of experiment [3] is T2, HUNK (Homo sapiens, UniProt P57058).
T2 sequence (P57058 1-714): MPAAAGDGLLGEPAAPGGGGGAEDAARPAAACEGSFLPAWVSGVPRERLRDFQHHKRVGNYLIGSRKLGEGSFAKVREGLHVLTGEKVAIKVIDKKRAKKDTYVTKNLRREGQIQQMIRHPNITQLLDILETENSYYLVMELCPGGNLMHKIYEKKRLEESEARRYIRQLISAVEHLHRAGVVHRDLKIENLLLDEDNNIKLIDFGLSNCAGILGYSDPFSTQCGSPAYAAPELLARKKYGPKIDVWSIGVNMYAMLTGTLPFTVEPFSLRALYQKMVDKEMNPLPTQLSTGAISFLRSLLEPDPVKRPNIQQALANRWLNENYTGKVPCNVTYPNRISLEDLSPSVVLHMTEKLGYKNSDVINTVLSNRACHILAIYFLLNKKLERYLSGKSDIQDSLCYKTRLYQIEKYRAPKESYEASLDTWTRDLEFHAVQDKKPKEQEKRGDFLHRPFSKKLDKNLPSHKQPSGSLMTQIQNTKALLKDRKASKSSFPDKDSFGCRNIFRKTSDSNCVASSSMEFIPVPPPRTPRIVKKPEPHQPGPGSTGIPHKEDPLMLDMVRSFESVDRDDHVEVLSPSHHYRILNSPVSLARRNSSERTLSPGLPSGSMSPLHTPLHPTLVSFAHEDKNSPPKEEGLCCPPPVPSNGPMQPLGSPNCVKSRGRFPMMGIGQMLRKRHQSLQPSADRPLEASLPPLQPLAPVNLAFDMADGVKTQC
Particulars: read-out: % control. In outline: as §1

Experiment [4] has as its target RIOK2 (Homo sapiens, UniProt Q9BVS4). To be noted: RIOK2, 1 μM; read-out: % control. In outline:
as §1

In experiment [5] the target is FGR (Homo sapiens, UniProt P09769). To be noted: read-out: % control. In outline: as §1
Experiment [6] concerns the target FRK (Homo sapiens, UniProt P42685). Particulars: read-out: % control. In a few lines: as §1
For experiment [7], the target named is CDK8 (Homo sapiens, UniProt P49336). To be noted: CDK8, 1 μM; read-out: % control. In a few lines: as §1
In experiment [8] the target is T3, BRAF(V600E) (Homo sapiens, UniProt P15056, V600E).
T3 construct: purchased KinomeScan®
Particulars: read-out: % control. In outline: as §1

CDK8, sequence (P49336 whole entry): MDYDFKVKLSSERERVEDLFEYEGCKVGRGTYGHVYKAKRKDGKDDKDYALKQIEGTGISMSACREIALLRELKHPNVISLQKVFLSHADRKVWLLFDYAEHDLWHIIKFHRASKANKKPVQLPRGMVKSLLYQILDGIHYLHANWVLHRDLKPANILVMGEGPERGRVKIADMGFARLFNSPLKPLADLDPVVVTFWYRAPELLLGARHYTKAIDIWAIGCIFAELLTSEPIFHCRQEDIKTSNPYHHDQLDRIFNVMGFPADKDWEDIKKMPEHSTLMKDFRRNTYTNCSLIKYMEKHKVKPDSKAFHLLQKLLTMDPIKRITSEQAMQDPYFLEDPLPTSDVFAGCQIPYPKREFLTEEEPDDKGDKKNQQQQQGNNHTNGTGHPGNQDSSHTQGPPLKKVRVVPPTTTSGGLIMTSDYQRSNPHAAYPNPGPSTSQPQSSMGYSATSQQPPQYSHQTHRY
T3 sequence (P15056 whole entry V600E): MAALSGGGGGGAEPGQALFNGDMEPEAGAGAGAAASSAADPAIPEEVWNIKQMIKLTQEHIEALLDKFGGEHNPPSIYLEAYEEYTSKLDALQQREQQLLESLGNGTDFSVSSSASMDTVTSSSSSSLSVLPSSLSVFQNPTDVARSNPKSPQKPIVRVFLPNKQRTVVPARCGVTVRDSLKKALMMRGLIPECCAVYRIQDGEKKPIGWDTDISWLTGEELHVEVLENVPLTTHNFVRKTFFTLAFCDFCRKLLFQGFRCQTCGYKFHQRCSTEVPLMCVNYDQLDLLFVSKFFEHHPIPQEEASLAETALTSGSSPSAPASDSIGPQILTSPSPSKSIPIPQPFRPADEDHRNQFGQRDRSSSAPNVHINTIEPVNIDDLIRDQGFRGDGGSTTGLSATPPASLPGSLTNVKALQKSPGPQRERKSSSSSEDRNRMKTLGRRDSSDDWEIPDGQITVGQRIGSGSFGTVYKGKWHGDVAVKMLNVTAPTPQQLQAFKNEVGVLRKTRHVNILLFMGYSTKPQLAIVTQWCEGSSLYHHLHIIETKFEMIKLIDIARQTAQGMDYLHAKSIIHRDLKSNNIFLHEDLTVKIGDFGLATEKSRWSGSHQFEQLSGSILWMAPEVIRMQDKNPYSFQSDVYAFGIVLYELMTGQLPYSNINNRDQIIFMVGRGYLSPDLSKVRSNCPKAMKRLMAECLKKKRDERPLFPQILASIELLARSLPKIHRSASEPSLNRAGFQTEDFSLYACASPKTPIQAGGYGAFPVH
FRK, sequence (P42685 whole entry): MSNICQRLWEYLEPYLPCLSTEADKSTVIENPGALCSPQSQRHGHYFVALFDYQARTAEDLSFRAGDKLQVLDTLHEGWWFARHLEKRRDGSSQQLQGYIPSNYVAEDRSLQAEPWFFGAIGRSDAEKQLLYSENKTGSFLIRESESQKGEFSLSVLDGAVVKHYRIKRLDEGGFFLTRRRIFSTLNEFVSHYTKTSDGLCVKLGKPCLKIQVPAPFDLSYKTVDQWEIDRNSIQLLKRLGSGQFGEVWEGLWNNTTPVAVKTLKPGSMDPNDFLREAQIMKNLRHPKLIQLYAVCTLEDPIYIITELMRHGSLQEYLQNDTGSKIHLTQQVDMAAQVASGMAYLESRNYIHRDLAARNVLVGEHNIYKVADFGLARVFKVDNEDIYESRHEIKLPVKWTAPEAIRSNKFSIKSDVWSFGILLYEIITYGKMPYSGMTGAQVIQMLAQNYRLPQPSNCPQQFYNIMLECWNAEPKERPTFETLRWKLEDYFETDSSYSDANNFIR
FGR, sequence (P09769 whole entry): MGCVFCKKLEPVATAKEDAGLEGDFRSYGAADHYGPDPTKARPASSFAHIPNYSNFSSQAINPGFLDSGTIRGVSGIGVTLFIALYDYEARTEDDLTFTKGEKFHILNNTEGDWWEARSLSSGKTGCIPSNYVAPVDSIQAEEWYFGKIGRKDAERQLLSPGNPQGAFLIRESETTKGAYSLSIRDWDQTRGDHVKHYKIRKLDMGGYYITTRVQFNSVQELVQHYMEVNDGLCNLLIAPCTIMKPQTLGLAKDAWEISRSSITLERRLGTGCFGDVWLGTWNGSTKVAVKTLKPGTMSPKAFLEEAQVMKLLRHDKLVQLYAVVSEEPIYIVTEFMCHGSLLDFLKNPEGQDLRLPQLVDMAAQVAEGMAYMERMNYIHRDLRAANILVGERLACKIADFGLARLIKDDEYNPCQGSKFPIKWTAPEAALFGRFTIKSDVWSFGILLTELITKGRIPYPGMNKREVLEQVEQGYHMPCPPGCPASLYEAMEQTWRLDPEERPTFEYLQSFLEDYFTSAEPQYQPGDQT
RIOK2, sequence (Q9BVS4 whole entry): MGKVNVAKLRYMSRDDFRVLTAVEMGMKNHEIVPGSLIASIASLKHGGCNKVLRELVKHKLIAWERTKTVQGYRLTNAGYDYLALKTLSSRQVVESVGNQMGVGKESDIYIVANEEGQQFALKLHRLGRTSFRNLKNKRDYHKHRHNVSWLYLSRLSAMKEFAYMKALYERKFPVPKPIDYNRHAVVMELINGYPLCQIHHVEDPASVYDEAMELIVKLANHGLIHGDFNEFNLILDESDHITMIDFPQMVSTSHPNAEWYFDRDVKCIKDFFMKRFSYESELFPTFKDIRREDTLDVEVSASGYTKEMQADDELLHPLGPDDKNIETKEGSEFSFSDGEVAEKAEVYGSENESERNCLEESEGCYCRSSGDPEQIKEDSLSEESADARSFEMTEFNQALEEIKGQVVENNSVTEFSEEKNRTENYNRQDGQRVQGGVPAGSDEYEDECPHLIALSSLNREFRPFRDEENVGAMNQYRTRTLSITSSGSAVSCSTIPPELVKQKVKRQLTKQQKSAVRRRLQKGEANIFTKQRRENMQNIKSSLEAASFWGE
PRKR, sequence (P19525 whole entry): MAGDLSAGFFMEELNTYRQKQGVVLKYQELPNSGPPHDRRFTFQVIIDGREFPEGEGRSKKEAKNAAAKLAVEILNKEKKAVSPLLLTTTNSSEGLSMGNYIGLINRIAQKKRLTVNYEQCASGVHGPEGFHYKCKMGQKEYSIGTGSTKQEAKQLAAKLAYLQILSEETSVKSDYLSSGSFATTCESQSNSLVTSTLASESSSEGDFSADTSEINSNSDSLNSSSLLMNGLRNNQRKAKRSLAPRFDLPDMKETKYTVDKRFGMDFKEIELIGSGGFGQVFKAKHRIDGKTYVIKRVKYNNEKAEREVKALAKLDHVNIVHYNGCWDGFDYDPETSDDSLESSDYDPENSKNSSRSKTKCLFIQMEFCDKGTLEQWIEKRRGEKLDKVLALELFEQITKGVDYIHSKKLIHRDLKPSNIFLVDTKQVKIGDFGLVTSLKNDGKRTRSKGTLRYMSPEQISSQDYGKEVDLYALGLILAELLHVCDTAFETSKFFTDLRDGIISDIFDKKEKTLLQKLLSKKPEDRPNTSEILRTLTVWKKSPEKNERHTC

As to `CNc1c(-c2cnn([C@H]3CCN(C(C)=O)C[C@@H]3F)c2)cnc2[nH]cc(Cl)c12` [Compound 77, 1-((3S,4S)-4-(4-(3-chloro-4-(methylamino)-1H-pyrrolo[2,3-b]pyridin-5-yl)-1H-pyrazol-1-yl)-3-fluoropiperidin-1-yl)ethan-1-one], the remaining binding at 1 µM in experiment [1] came out at 57%; in experiment [2], 68%; in experiment [3] it was 100%; in experiment [4], 73%; in experiment [5] it was 80%; in experiment [6], 100%. In addition, the figures for the remaining binding at 1 µM in experiment [7] and in experiment [8] were 100% and 98%, respectively.

Regarding `CNc1c(-c2ccc(C(=O)N3CCC(N4CCOCC4)CC3)cc2)cnc2[nH]cc(Cl)c12` [Compound 96, (4-(3-chloro-4-(methylamino)-1H-pyrrolo[2,3-b]pyridin-5-yl)phenyl)(4-morpholinopiperidin-1-yl)methanone], the remaining binding at 1 µM is 91% in experiment [1]; 70% in experiment [2]; 100% in experiment [3]; 26% in experiment [4]; 95% in experiment [5]; 84% in experiment [6]. Also, the results for the remaining binding at 1 µM in experiment [7] and in experiment [8] were 82% and 87%, respectively.

On to `O=C(c1ccc(-c2cnc3[nH]cc(Cl)c3c2NC2CCCC2)cc1)N1CCC(N2CCOCC2)CC1` [Compound 101, (4-(3-chloro-4-(cyclopentylamino)-1H-pyrrolo[2,3-b]pyridin-5-yl)phenyl)(4-morpholinopiperidin-1-yl)methanone], for which the remaining binding at 1 µM in experiment [1] was 90%; in experiment [2], 82%; in experiment [3], 100%; in experiment [4], 28%; in experiment [5], 94%; in experiment [6], 100%. In addition, the remaining binding at 1 µM amounted to 59% in experiment [7] and 99% in experiment [8].
